Measurements taken from patent publication US12655174B2, “Adenosine A3 receptor agonists, preparation methods and uses thereof” (ZHEJIANG VIMGREEN PHARMACEUTICALS, LTD., priority 2020, dated 2026).
Where “and” joins values, the source holds several entries; their conditions need not be identical. Equal values may be shown once.

How the values were obtained:
[1] = molecular target: T1, ADORA3 receptor (CHO cells stably expressing ADORA3 receptor) (Homo sapiens, UniProt P0DMS8); assay: Effect of compound on intracellular cAMP level by adenosine A3 receptor agonism; format: cell-based; settings: forskolin-stimulated
T1 construct: expressed in transfected cells
T1 sequence (P0DMS8 1-318): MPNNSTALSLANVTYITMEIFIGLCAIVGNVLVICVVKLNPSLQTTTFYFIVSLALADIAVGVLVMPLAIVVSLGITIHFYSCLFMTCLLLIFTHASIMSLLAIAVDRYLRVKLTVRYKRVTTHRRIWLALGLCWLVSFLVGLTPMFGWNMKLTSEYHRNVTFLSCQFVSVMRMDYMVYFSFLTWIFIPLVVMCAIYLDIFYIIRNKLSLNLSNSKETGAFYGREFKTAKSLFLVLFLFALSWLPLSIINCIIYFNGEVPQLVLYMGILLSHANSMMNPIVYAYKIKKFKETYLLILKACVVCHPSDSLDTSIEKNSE
Description: Example 26: Test the Effect of Compound on Intracellular cAMP Level by Adenosine A3 Receptor Agonism
• 1) 1×HBSS with Ca2+ and Mg2+ (14 mL), 1 M HEPES (75 μL), a 7.5% (w/v) BSA stabilizer (pH 7.4, 200 μL), and 20 mM rolipram (7.5 μL) were respectively prepared as cAMP assay buffer. • 2) Preparation of compound source plate • a. […] A 10 mM stock solution was subjected to a 3-fold serial dilution by 100% (v/v) DMSO to prepare 10 doses of the test substance. • c. 1 mM of Forskolin was prepared by 100% (v/v) DMSO. • 3) Preparation of test plate • a. Prior to the assay, CHO cells stably expressing ADORA3 receptor were harvested and the cells were counted by using a Countess cell counter. […] The cells were seeded at a density of 2,000 cells/well in a 384-well plate. • 4) 10 nL/well of the serially diluted compound and 10 nL/well of 1 mM of forskolin were transferred to each well with ADORA3 receptor expressing cells by using Echo550. • 5) A cell plate was centrifuged at 1,000 rpm for 1 minute and then stirred at 600 rpm for 2 minutes. The plate was incubated at 37° C. • 6) An Eu-cAMP tracer working solution and an Ulight-anti-cAMP working solution were prepared according to the following table.
• 7) 5 μl/well of the Eu-cAMP tracer working solution and 5 μl/well of the Ulight-anti-cAMP working solution were added to each well of the plate. […] 2. Data Analysis • 1) An activation percentage was calculated by using the following formula:
[formula] • % Activation: activation percentage • Ratiocpd: ratio of emissivity of test compound • RatioLow control: ratio of low emissivity • RatioHigh control: ratio of high emissivity • 2) EC50 was calculated by an XLfit using the Hill equation to fit the activity percentage and a log of a compound concentration. 3. Test Result

[2] = Pharmacokinetic test of compound in SD rat; format: in vivo; settings: SD rats, intragastric administration (IG), cassette dosing
Description: Example 28: Pharmacokinetic Test of Compound in SD Rat
The animal species used in this experiment were SD rats. There were 3 animals per group. The rats were dosed in cassette format, i.e., multiple (1-6) different compounds were dosed simultaneously to the same group of the SD rats. The vehicle used for the drug was 5% DMSO+5% Solutl+90% ([…] methylcellulose M450), and the administration route was intragastric administration (IG).

| Compound | EC50 [1] | AUC_D [2] |
| --- | --- | --- |
| CCOc1cncc(-c2nc(NCc3cccc(C)c3)c3ncn(C4O[C@H](C(=O)NC)[C@@H](O)[C@H]4O)c3n2)c1 (stereo in doubt) [compound 301, (2S,3S,4R,5S)-5-(2-(5-ethoxypyridin-3-yl)-6-((3-methylbenzyl)amino)-9H-purin-9-yl)-3,4-dihydroxyl-N-methyltetrahydrofuran-2-carboxamide] | 3.78 nM | 744.06 kg·ng·h/mL/mg |
| CNC(=O)[C@H]1OC(n2cnc3c(NCc4ccccn4)nc(-c4cncc(OC)c4)nc32)[C@H](O)[C@@H]1O (stereo in doubt) [compound 307, (2S,3S,4R,5S)-3,4-dihydroxyl-5-(2-(5-methoxypyridin-3-yl)-6-((pyridin-2-ylmethyl)amino)-9H-purin-9-yl)-N-methyltetrahydrofuran-2-carboxamide] | 9.4 nM | 173.85 kg·ng·h/mL/mg |
| [2H]C([2H])([2H])NC(=O)[C@H]1O[C@@H](n2cnc3c(NCc4ccccc4)nc(-c4ccsc4)nc32)[C@H](O)[C@@H]1O [compound 24, (2S,3S,4R,5R)-5-(6-(benzylamino)-2-(thiophen-3-yl)-9H-purin-9-yl)-3,4-dihydroxyl-N-(methyl-d3)-tetrahydrofuran-2-formamide] | 5.77 nM | 86.00 kg·ng·h/mL/mg |
| CNC(=O)[C@H]1O[C@@H](n2cnc3c(NCc4cccc(C)n4)nc(-c4cncc(OC)c4)nc32)[C@H](O)[C@@H]1O [compound 111, (2S,3S,4R,5R)-3,4-dihydroxyl-5-(2-(5-methoxypyridin-3-yl)-6-((((6-methylpyridin-2-yl))methyl)amino)-9H-purin-9-yl)-N-methyltetrahydrofuran-2-carboxamide] | 7.32 nM | 230.72 kg·ng·h/mL/mg |
| CNC(=O)[C@H]1O[C@@H](n2cnc3c(NCc4cccc(C)c4)nc(-c4cncc(Cl)c4)nc32)[C@H](O)[C@@H]1O [compound 160, (2S,3S,4R,5R)-5-(2-(5-chloropyridin-3-yl)-6-((3-methylbenzyl)amino)-9H-purin-9-yl)-3,4-dihydroxyl-N-methyltetrahydrofuran-2-carboxamide] | 3.53 nM | 1900.75 kg·ng·h/mL/mg and 1515.94 kg·ng·h/mL/mg |
| CNC(=O)[C@H]1O[C@@H](n2cnc3c(NCc4cccc(C(F)(F)F)c4)nc(-c4cncc(Cl)c4)nc32)[C@H](O)[C@@H]1O [compound 179, (2S,3S,4R,5R)-5-(6-(3-(trifluoromethyl)benzylamino)-2-(5-chloropyridin-3-yl)-9H-purin-9-yl)-3,4-dihydroxyl-N-methyl-tetrahydrofuran-2-formamide] | 9.44 nM | 273.37 kg·ng·h/mL/mg |
| CNC(=O)[C@H]1O[C@@H](n2cnc3c(NCc4ccccc4)nc(-c4cncc(OC)c4)nc32)[C@H](O)[C@@H]1O [compound 187, (2S,3S,4R,5R)-5-(6-(benzylamino)-2-(5-methoxypyridin-3-yl)-9H-purin-9-yl)-3,4-dihydroxyl-N-methyl-tetrahydrofuran-2-formamide] | 14.5 nM | 1269.78 kg·ng·h/mL/mg |
| CNC(=O)[C@H]1O[C@@H](n2cnc3c(NCc4cccc(Cl)n4)nc(-c4cncc(OC)c4)nc32)[C@H](O)[C@@H]1O [compound 230, (2S,3S,4R,5R)-5-(6-(((6-chloropyridin-2-yl)methyl)amino)-2-(5-methoxypyridin-3-ly)-9H-purin-9-yl)-3,4-dihydroxyl-N-methyltetrahydrofuran-2-carboxamide] | 8.68 nM | 212.91 kg·ng·h/mL/mg |
| [2H]C([2H])([2H])NC(=O)[C@H]1O[C@@H](n2cnc3c(NCc4cccs4)nc(-c4cncc(Cl)c4)nc32)[C@H](O)[C@@H]1O [compound 254, (2S,3S,4R,5R)-5-(2-(5-chloropyridin-3-yl)-6-((thiophen-2-ylmethyl)amino)-9H-purin-9-yl)-3,4-dihydroxyl-N-(methyl-d3)tetrahydrofuran-2-carboxamide] | 9.51 nM | 703.00 kg·ng·h/mL/mg |
| [2H]C([2H])([2H])NC(=O)[C@H]1O[C@@H](n2cnc3c(NCc4ccsc4)nc(-c4cncc(Cl)c4)nc32)[C@H](O)[C@@H]1O [compound 255, (2S,3S,4R,5R)-5-(2-(5-chloropyridin-3-yl)-6-((thiophen-3-ylmethyl)amino)-9H-purin-9-yl)-3,4-dihydroxyl-N-(methyl-d3)tetrahydrofuran-2-carboxamide] | 8.58 nM | 406.00 kg·ng·h/mL/mg |
| CNC(=O)[C@H]1O[C@@H](n2cnc3c(NCc4cccc(C(F)(F)F)n4)nc(-c4cncc(F)c4)nc32)[C@H](O)[C@@H]1O [compound 289, (2S,3S,4R,5R)-5-(2-(5-fluoropyridin-3-yl)-6-(((6-(trifluoromethyl)pyridin-2-yl)methyl)amino)-9H-purin-9-yl)-3,4-dihydroxyl-N-methyltetrahydrofuran-2-carboxamide] | 6.81 nM | 106.30 kg·ng·h/mL/mg |

These reach a lower EC50 [1]. Values come first.

| EC50 [1] | AUC_D [2] | Compound |
| --- | --- | --- |
| < 0.51 nM | 83.00 kg·ng·h/mL/mg | [2H]C([2H])([2H])NC(=O)[C@H]1O[C@@H](n2cnc3c(NC([2H])([2H])[2H])nc(-c4ccsc4)nc32)[C@H](O)[C@@H]1O [compound 92, (2S,3S,4R,5R)-3,4-dihydroxyl-N-(methyl-d3)-5-(6-(methyl-d3-amino)-2-(thiophen-3-yl)-9H-purin-9-yl)tetrahydrofuran-2-carboxamide] |
| 1.58 nM | 801.47 kg·ng·h/mL/mg | CNC(=O)[C@H]1O[C@@H](n2cnc3c(NCc4cccc(C)c4)nc(-c4cccnc4)nc32)[C@H](O)[C@@H]1O [compound 108, (2S,3S,4R,5R)-3,4-dihydroxyl-N-methyl-5-(6-((3-methylbenzyl)amino)-2-(pyridin-3-yl)-9H-purin-9-yl)tetrahydrofuran-2-carboxamide] |
| 0.74 nM | 994.72 kg·ng·h/mL/mg | CNC(=O)[C@H]1O[C@@H](n2cnc3c(NCc4cccc(C)c4)nc(-c4cncc(F)c4)nc32)[C@H](O)[C@@H]1O [compound 161, (2S,3S,4R,5R)-5-(2-(5-fluoropyridin-3-yl)-6-((3-methylbenzyl)amino)-9H-purin-9-yl)-3,4-dihydroxyl-N-methyltetrahydrofuran-2-carboxamide] |
| < 0.51 nM | 235.62 kg·ng·h/mL/mg | CNC(=O)[C@H]1O[C@@H](n2cnc3c(NCc4cc(Cl)ccn4)nc(-c4cccnc4)nc32)[C@H](O)[C@@H]1O [compound 182, (2S,3S,4R,5R)-5-(6-((4-chloropyridin-2-yl)methylamino)-2-(pyridin-3-yl)-9H-purin-9-yl)-3,4-dihydroxyl-N-methyl-tetrahydrofuran-2-formamide] |
| < 0.51 nM | 589.63 kg·ng·h/mL/mg | CNC(=O)[C@H]1O[C@@H](n2cnc3c(NCc4cc(Cl)ccn4)nc(-c4cncc(OC)c4)nc32)[C@H](O)[C@@H]1O [compound 185, (2S,3S,4R,5R)-5-(6-((4-chloropyridin-2-yl)methylamino)-2-(5-methoxypyridin-3-yl)-9H-purin-9-yl)-3,4-dihydroxyl-N-methyl-tetrahydrofuran-2-formamide] |
| 0.28 nM | 1182.41 kg·ng·h/mL/mg | [2H]C([2H])([2H])NC(=O)[C@H]1O[C@@H](n2cnc3c(NCc4cc(Cl)ccc4F)nc(-c4cncc(Cl)c4)nc32)[C@H](O)[C@@H]1O [compound 245, (2S,3S,4R,5R)-5-(6-(5-chloro-2-fluorobenzylamino)-2-(5-chloropyridin-3-yl)-9H-purin-9-yl)-3,4-dihydroxyl-N-((methyl-d3))-tetrahydrofuran-2-carboxamide] |
| 2.85 nM | 8902.66 kg·ng·h/mL/mg | CNC(=O)[C@H]1O[C@@H](n2cnc3c(NCc4cccc(C)c4)nc(-c4cncc(C)c4)nc32)[C@H](O)[C@@H]1O [compound 284, (2S,3S,4R,5R)-5-(6-(3-methylbenzylamino)-2-(5-methylpyridin-3-yl)-9H-purin-9-yl)-3,4-dihydroxyl-N-methyl-tetrahydrofuran-2-formamide] |
| 2.26 nM |  | [2H]C([2H])([2H])NC(=O)[C@H]1O[C@@H](n2cnc3c(NCc4cccc(C)c4)nc(-c4cncc(OC)c4)nc32)[C@H](O)[C@@H]1O [compound 302] |
